Source: PubChem BioAssay AID330 (DTP/NCI, 2004)
Toxic doses and inconclusive results are not listed.

Tested on: P388 leukemia ip, CD2F1 mice, survival T/C
Experiment: NCI In Vivo Anticancer Drug Screen. Data for tumor model P388 Leukemia (intraperitoneal) in CD2F1 (CDF1) mice
Details: endpoint: median survival time, higher = longer survival
Outline: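 Mice carrying the transplanted tumor received test compound or vehicle. Survival was recorded in each group, and the value is the treated-group measurement divided by that of the vehicle-treated control group.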

[1] = dose: 100.0 mg/kg/injection, schedule: Q04DX002 (ip), vehicle: saline with Tween-80
[2] = dose: 200.0 mg/kg/injection, schedule: Q04DX002 (ip), vehicle: saline with Tween-80
[3] = dose: 400.0 mg/kg/injection, schedule: Q04DX002 (ip), vehicle: saline with Tween-80
[4] = dose: 50.0 mg/kg/injection, schedule: Q01DX005 (ip), vehicle: Klucel (hydroxypropylcellulose) (HPC)
[5] = dose: 100.0 mg/kg/injection, schedule: Q01DX005 (ip), vehicle: Klucel (hydroxypropylcellulose) (HPC)
[6] = dose: 12.5 mg/kg/injection, schedule: Q01DX009 (ip), vehicle: saline with Tween-80
[7] = dose: 25.0 mg/kg/injection, schedule: Q01DX009 (ip), vehicle: saline with Tween-80
[8] = dose: 50.0 mg/kg/injection, schedule: Q01DX009 (ip), vehicle: saline with Tween-80
[9] = dose: 100.0 mg/kg/injection, schedule: Q01DX009 (ip), vehicle: saline with Tween-80
[10] = dose: 200.0 mg/kg/injection, schedule: Q01DX009 (ip), vehicle: saline with Tween-80
[11] = dose: 100.0 mg/kg/injection, schedule: Q04DX003 (ip), vehicle: saline with Tween-80
[12] = dose: 200.0 mg/kg/injection, schedule: Q04DX003 (ip), vehicle: saline with Tween-80
[13] = dose: 400.0 mg/kg/injection, schedule: Q04DX003 (ip), vehicle: saline with Tween-80

Cc1[nH]cnc1CSCCN=C(N)n1[nH]cc(-c2ccc(Cl)cc2)c1=O
T/C (dose: 100.0 mg/kg/injection, schedule: Q01DX001 (ip), vehicle: Klucel (hydroxypropylcellulose) (HPC)): 100 % of control | T/C (dose: 200.0 mg/kg/injection, schedule: Q01DX001 (ip), vehicle: Klucel (hydroxypropylcellulose) (HPC)): 97 % of control | T/C (dose: 400.0 mg/kg/injection, schedule: Q01DX001 (ip), vehicle: Klucel (hydroxypropylcellulose) (HPC)): 101 % of control

CCOC(=O)C(c1ccccc1)C(CC=C(C)C)(C(C)=O)C(=O)OC (stereo not given)
T/C [1]: 103 % of control | T/C [2]: 103 % of control | T/C [3]: 105 % of control

CN(C)C(=O)C[n+]1ccccc1
T/C (dose: 12.5 mg/kg/injection, schedule: Q01DX009 (ip), vehicle: saline): 99 % of control | T/C (dose: 25.0 mg/kg/injection, schedule: Q01DX009 (ip), vehicle: saline): 98 % of control | T/C (dose: 50.0 mg/kg/injection, schedule: Q01DX009 (ip), vehicle: saline): 101 % of control

COc1cc(CSc2ccccc2)cc(OC)c1N
T/C [4]: 95 % of control | T/C [5]: 100 % of control | T/C (dose: 200.0 mg/kg/injection, schedule: Q01DX005 (ip), vehicle: Klucel (hydroxypropylcellulose) (HPC)): 99 % of control

CC1(O)c2ccccc2[P+](C)(c2ccccc2)c2ccccc21 (stereo not given)
T/C [6]: 111 % of control | T/C [7]: 109 % of control

CN(C)C(=O)Oc1ccc(Br)cc1
T/C [8]: 101 % of control | T/C [9]: 94 % of control | T/C [10]: 103 % of control

CN=C(NCCCOC)c1ccc(NC(=O)Nc2ccc(NC(=O)Nc3ccc(C(=NC)NCCCOC)cc3)cc2)cc1
T/C [4]: 150 % of control

CN(CCO)c1ncnc2c1cnn2C
T/C (dose: 50.0 mg/kg/injection, schedule: Q01DX005 (ip), vehicle: saline): 100 % of control | T/C (dose: 100.0 mg/kg/injection, schedule: Q01DX005 (ip), vehicle: saline): 101 % of control | T/C (dose: 200.0 mg/kg/injection, schedule: Q01DX005 (ip), vehicle: saline): 100 % of control

Nc1c(/C=C/c2cc3ccc(C4=NCCN4)cc3[nH]2)[nH]c2cc(C3=NCCN3)ccc12
T/C (dose: 12.5 mg/kg/injection, schedule: Q01DX005 (ip), vehicle: Klucel (hydroxypropylcellulose) (HPC)): 111 % of control | T/C (dose: 25.0 mg/kg/injection, schedule: Q01DX005 (ip), vehicle: Klucel (hydroxypropylcellulose) (HPC)): 120 % of control | T/C [4]: 189 % of control | T/C [5]: 223 % of control

Cc1cc(=O)[nH]c2c1ccc1ccccc12
T/C [1]: 95 % of control | T/C [2]: 93 % of control | T/C [3]: 99 % of control

CCSCCCCSCC
T/C [8]: 100 % of control | T/C [9]: 109 % of control | T/C [10]: 113 % of control

Cc1ccccc1NC(CCl)=NC(C)(C)C
T/C [11]: 98 % of control | T/C [12]: 107 % of control | T/C [13]: 104 % of control

CS[C@@H]1C[C@H]2[C@@H]3CCC4=CC(=O)CC[C@]4(C)[C@H]3CC[C@]2(C)[C@H]1C(C)=O
T/C [6]: 90 % of control | T/C [7]: 90 % of control | T/C [8]: 100 % of control | T/C [11]: 100 % of control | T/C [12]: 90 % of control | T/C [13]: 100 % of control
